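Cells were grown in 96-well plates and exposed to each compound for 48 hours at five concentrations; endpoints were interpolated linearly between bracketing concentrations, or set to the highest concentration if not reached. GI50 is the concentration that inhibits growth by half.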 Activity calls are given as the source filed them. No stated cut-off is given here; in the data, active = GI50 up to about 1.1 µM and inactive = higher.
How the values were obtained:
Test in all cases: NCI-60 cell line screen, 48 h
[1] = tested on: 786-0
[2] = tested on: A498
[3] = tested on: A549
[4] = tested on: ACHN
[5] = tested on: BT-549
[6] = tested on: CAKI-1
[7] = tested on: CCRF-CEM
[8] = tested on: COLO 205
[9] = tested on: DU-145
[10] = tested on: EKVX
[11] = tested on: HCC 2998
[12] = tested on: HCT-116
[13] = tested on: HCT-15
[14] = tested on: HL-60
[15] = tested on: HOP-62
[16] = tested on: HOP-92
[17] = tested on: HT-29
[18] = tested on: Hs-578T
[19] = tested on: IGROV-1
[20] = tested on: K562
[21] = tested on: LOX IMVI
[22] = tested on: M14
[23] = tested on: MCF7
[24] = tested on: MDA-MB-231
[25] = tested on: MDA-MB-435
[26] = tested on: MDA-N
[27] = tested on: MOLT-4
[28] = tested on: Malme-3M
[29] = tested on: NCI-H226
[30] = tested on: NCI-H23
[31] = tested on: NCI-H460
[32] = tested on: NCI-H522
[33] = tested on: NCI/ADR-RES
[34] = tested on: OVCAR-3
[35] = tested on: OVCAR-4
[36] = tested on: OVCAR-5
[37] = tested on: OVCAR-8
[38] = tested on: PC-3
[39] = tested on: RPMI-8226
[40] = tested on: RXF 393
[41] = tested on: SF-268
[42] = tested on: SF-295
[43] = tested on: SF-539
[44] = tested on: SK-MEL-28
[45] = tested on: SK-MEL-2
[46] = tested on: SK-MEL-5
[47] = tested on: SN12C
[48] = tested on: SNB-19
[49] = tested on: SNB-75
[50] = tested on: SR
[51] = tested on: SW-620
[52] = tested on: T47D
[53] = tested on: TK-10
[54] = tested on: U-251
[55] = tested on: UACC-257
[56] = tested on: UACC-62
[57] = tested on: KM12
[58] = tested on: SK-OV-3
[59] = tested on: UO-31

## CCOP(=O)(Nc1ccc2oc(=O)c3ccccc3c2c1)OCC
[1]
  GI50: 76.7 µM (inactive)
[2]
  GI50: 27.5 µM (inactive)
[3]
  GI50: 41.9 µM (inactive)
[4]
  GI50: 33.2 µM (inactive)
[5]
  GI50: 15.2 µM (inactive)
[6]
  GI50: 26.2 µM (inactive)
[7]
  GI50: 51.3 µM (inactive)
[8]
  GI50: > 100 µM (inactive)
[9]
  GI50: 92.7 µM (inactive)
[10]
  GI50: 46 µM (inactive)
[11]
  GI50: 88.5 µM (inactive)
[12]
  GI50: 66.2 µM (inactive)
[13]
  GI50: 79.8 µM
[14]
  GI50: 19.4 µM (inactive)
[15]
  GI50: 62.1 µM (inactive)
[16]
  GI50: 24.6 µM (inactive)
[17]
  GI50: 63.2 µM (inactive)
[18]
  GI50: 19.8 µM (inactive)
[19]
  GI50: 48 µM (inactive)
[20]
  GI50: 38.1 µM (inactive)
[21]
  GI50: 47.5 µM (inactive)
[22]
  GI50: > 100 µM (inactive)
[23]
  GI50: 14.2 µM (inactive)
[24]
  GI50: 38.4 µM (inactive)
[25]
  GI50: > 100 µM (inactive)
[26]
  GI50: 97.5 µM (inactive)
[27]
  GI50: 54.8 µM (inactive)
[28]
  GI50: > 100 µM (inactive)
[29]
  GI50: 41 µM (inactive)
[30]
  GI50: > 100 µM (inactive)
[31]
  GI50: > 100 µM (inactive)
[32]
  GI50: 68.9 µM (inactive)
[33]
  GI50: 71.1 µM (inactive)
[34]
  GI50: 45.2 µM (inactive)
[35]
  GI50: 60.1 µM (inactive)
[36]
  GI50: 80.4 µM (inactive)
[37]
  GI50: > 100 µM (inactive)
[38]
  GI50: 27.8 µM (inactive)
[39]
  GI50: 21.2 µM (inactive)
[40]
  GI50: 91.2 µM (inactive)
[41]
  GI50: 56.6 µM (inactive)
[42]
  GI50: > 100 µM (inactive)
[43]
  GI50: > 100 µM (inactive)
[44]
  GI50: > 100 µM (inactive)
[45]
  GI50: 62.5 µM (inactive)
[46]
  GI50: 28.6 µM (inactive)
[47]
  GI50: > 100 µM (inactive)
[48]
  GI50: 84.1 µM (inactive)
[49]
  GI50: 66.2 µM (inactive)
[50]
  GI50: 31.7 µM (inactive)
[51]
  GI50: > 100 µM (inactive)
[52]
  GI50: 35.3 µM (inactive)
[53]
  GI50: 49.1 µM (inactive)
[54]
  GI50: 75.2 µM (inactive)
[55]
  GI50: > 100 µM (inactive)
[56]
  GI50: 48.1 µM (inactive)

## COc1cc(-c2c(C#N)c(N)c(C#N)c3c2COc2ccccc2-3)cc(OC)c1OC
[1]
  GI50: 7.93 µM (inactive)
[2]
  GI50: 39.3 µM (inactive)
[3]
  GI50: > 100 µM (inactive)
[4]
  GI50: 27.8 µM (inactive)
[5]
  GI50: 31.6 µM (inactive)
[6]
  GI50: 53.1 µM (inactive)
[7]
  GI50: > 100 µM (inactive)
[8]
  GI50: > 100 µM (inactive)
[9]
  GI50: 43.4 µM (inactive)
[10]
  GI50: 25.6 µM (inactive)
[11]
  GI50: 16.6 µM (inactive)
[12]
  GI50: > 49.4 µM (inactive)
[13]
  GI50: > 100 µM
[14]
  GI50: > 100 µM (inactive)
[15]
  GI50: 7.5 µM (inactive)
[16]
  GI50: 16.9 µM (inactive)
[17]
  GI50: > 30.6 µM (inactive)
[18]
  GI50: 16.4 µM (inactive)
[19]
  GI50: 26.7 µM (inactive)
[20]
  GI50: > 60.4 µM (inactive)
[57]
  GI50: > 100 µM (inactive)
[21]
  GI50: 39.2 µM (inactive)
[22]
  GI50: > 100 µM (inactive)
[23]
  GI50: > 100 µM (inactive)
[24]
  GI50: 15.1 µM (inactive)
[25]
  GI50: > 100 µM (inactive)
[26]
  GI50: > 100 µM (inactive)
[27]
  GI50: > 76.9 µM (inactive)
[28]
  GI50: 20.3 µM (inactive)
[29]
  GI50: 6.92 µM (inactive)
[30]
  GI50: 31.6 µM (inactive)
[31]
  GI50: > 77.3 µM (inactive)
[32]
  GI50: 84.1 µM (inactive)
[33]
  GI50: 42.5 µM (inactive)
[34]
  GI50: > 42.8 µM (inactive)
[35]
  GI50: > 22.8 µM (inactive)
[36]
  GI50: > 100 µM (inactive)
[37]
  GI50: 28.6 µM (inactive)
[38]
  GI50: > 25.6 µM (inactive)
[39]
  GI50: > 22.9 µM (inactive)
[40]
  GI50: 16.4 µM (inactive)
[41]
  GI50: 11.5 µM (inactive)
[42]
  GI50: 24.9 µM (inactive)
[43]
  GI50: 5.35 µM (inactive)
[44]
  GI50: > 100 µM (inactive)
[45]
  GI50: 22.6 µM (inactive)
[46]
  GI50: > 86.3 µM (inactive)
[58]
  GI50: 14.6 µM (inactive)
[47]
  GI50: 25.9 µM (inactive)
[48]
  GI50: 13.2 µM (inactive)
[50]
  GI50: > 74 µM (inactive)
[51]
  GI50: > 100 µM (inactive)
[52]
  GI50: > 46.9 µM (inactive)
[53]
  GI50: 17.6 µM (inactive)
[54]
  GI50: 12.4 µM (inactive)
[55]
  GI50: > 100 µM (inactive)
[56]
  GI50: 30.2 µM (inactive)
[59]
  GI50: > 35.8 µM (inactive)

## CNC(=O)C(C)NC(=O)C(Cc1ccccc1)NC(=O)OC(C)(C)C (configuration not stated)
[1]
  GI50: > 100 µM (inactive)
[2]
  GI50: > 100 µM (inactive)
[3]
  GI50: > 100 µM (inactive)
[4]
  GI50: > 100 µM (inactive)
[5]
  GI50: > 100 µM (inactive)
[6]
  GI50: > 100 µM (inactive)
[7]
  GI50: > 100 µM (inactive)
[8]
  GI50: > 100 µM (inactive)
[9]
  GI50: > 100 µM (inactive)
[10]
  GI50: > 100 µM (inactive)
[11]
  GI50: > 100 µM (inactive)
[12]
  GI50: > 100 µM (inactive)
[13]
  GI50: > 100 µM
[14]
  GI50: > 100 µM (inactive)
[15]
  GI50: > 100 µM (inactive)
[16]
  GI50: > 100 µM (inactive)
[17]
  GI50: > 100 µM (inactive)
[18]
  GI50: > 100 µM (inactive)
[19]
  GI50: > 100 µM (inactive)
[20]
  GI50: > 100 µM (inactive)
[57]
  GI50: > 100 µM (inactive)
[21]
  GI50: > 100 µM (inactive)
[22]
  GI50: > 100 µM (inactive)
[23]
  GI50: > 100 µM (inactive)
[24]
  GI50: > 100 µM (inactive)
[25]
  GI50: > 100 µM (inactive)
[26]
  GI50: > 100 µM (inactive)
[27]
  GI50: > 100 µM (inactive)
[28]
  GI50: > 100 µM (inactive)
[29]
  GI50: > 100 µM (inactive)
[30]
  GI50: > 100 µM (inactive)
[31]
  GI50: > 100 µM (inactive)
[32]
  GI50: 51.2 µM (inactive)
[33]
  GI50: > 100 µM (inactive)
[34]
  GI50: > 100 µM (inactive)
[36]
  GI50: > 100 µM (inactive)
[37]
  GI50: > 100 µM (inactive)
[38]
  GI50: > 100 µM (inactive)
[39]
  GI50: > 100 µM (inactive)
[40]
  GI50: > 100 µM (inactive)
[41]
  GI50: > 100 µM (inactive)
[42]
  GI50: > 100 µM (inactive)
[43]
  GI50: > 100 µM (inactive)
[44]
  GI50: > 100 µM (inactive)
[45]
  GI50: > 100 µM (inactive)
[46]
  GI50: > 100 µM (inactive)
[58]
  GI50: > 100 µM (inactive)
[47]
  GI50: > 100 µM (inactive)
[48]
  GI50: > 100 µM (inactive)
[49]
  GI50: > 100 µM (inactive)
[50]
  GI50: > 100 µM (inactive)
[51]
  GI50: > 100 µM (inactive)
[52]
  GI50: > 100 µM (inactive)
[53]
  GI50: > 100 µM (inactive)
[54]
  GI50: > 100 µM (inactive)
[55]
  GI50: > 100 µM (inactive)
[56]
  GI50: > 100 µM (inactive)
[59]
  GI50: > 100 µM (inactive)
